According to PubChem BioAssay AID248 (DTP/NCI, 2004):
Where “and” joins values, the source holds several entries; their conditions need not be identical. Identical values can stand only once. Toxic doses and inconclusive results are not listed. No stated cut-off is given here; in the data, active means T/C of 150% or more; inactive means T/C below 125%.

Test system: L1210 leukemia ip in BDF1 mice, survival T/C
Test: NCI In Vivo Anticancer Drug Screen. Data for tumor model L1210 Leukemia (intraperitoneal) in B6D2F1 (BDF1) mice
Conditions: endpoint: mean survival time, higher = longer survival
In short: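 Read-out is survival time, reported as the treated-group measurement over the vehicle-control measurement.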

[1] = dose: 50.0 mg/kg/injection, schedule: Q04DX002 (ip), vehicle: saline
[2] = dose: 100.0 mg/kg/injection, schedule: Q01DX001 (ip), vehicle: saline with Tween-80
[3] = dose: 200.0 mg/kg/injection, schedule: Q01DX001 (ip), vehicle: saline with Tween-80
[4] = dose: 100.0 mg/kg/injection, schedule: Q04DX002 (ip), vehicle: saline with Tween-80
[5] = dose: 100.0 mg/kg/injection, schedule: Q04DX002 (ip), vehicle: Klucel (hydroxypropylcellulose) (HPC)
[6] = dose: 200.0 mg/kg/injection, schedule: Q04DX002 (ip), vehicle: Klucel (hydroxypropylcellulose) (HPC)
[7] = dose: 400.0 mg/kg/injection, schedule: Q04DX002 (ip), vehicle: Klucel (hydroxypropylcellulose) (HPC)
[8] = dose: 100.0 mg/kg/injection, schedule: Q04DX003 (ip), vehicle: saline with Tween-80
[9] = dose: 200.0 mg/kg/injection, schedule: Q04DX003 (ip), vehicle: saline with Tween-80
[10] = dose: 400.0 mg/kg/injection, schedule: Q04DX003 (ip), vehicle: saline with Tween-80
[11] = dose: 25.0 mg/kg/injection, schedule: Q01DX009 (ip), vehicle: saline
[12] = dose: 50.0 mg/kg/injection, schedule: Q01DX009 (ip), vehicle: saline
[13] = dose: 50.0 mg/kg/injection, schedule: Q01DX009 (ip), vehicle: saline with Tween-80
[14] = dose: 100.0 mg/kg/injection, schedule: Q01DX009 (ip), vehicle: saline with Tween-80
[15] = dose: 200.0 mg/kg/injection, schedule: Q01DX009 (ip), vehicle: saline with Tween-80

Measured: T/C

CCC(C)C(CCN(C)CC)(CNC(=O)CN(CC)CC)c1cccc2ccccc12 (stereo unspecified)
inactive: [1] 106 % of control | dose: 100.0 mg/kg/injection, schedule: Q01DX009 (ip), vehicle: saline 96 % of control | dose: 100.0 mg/kg/injection, schedule: Q04DX002 (ip), vehicle: saline 97 % of control

O=C(COCC(=O)N/N=C/c1c(O)ccc2ccccc12)N/N=C/c1c(O)ccc2ccccc12
inactive: dose: 100.0 mg/kg/injection, schedule: Q01DX009 (ip), vehicle: Klucel (hydroxypropylcellulose) (HPC) 98 % of control | dose: 200.0 mg/kg/injection, schedule: Q01DX009 (ip), vehicle: Klucel (hydroxypropylcellulose) (HPC) 89 % of control | dose: 400.0 mg/kg/injection, schedule: Q01DX009 (ip), vehicle: Klucel (hydroxypropylcellulose) (HPC) 95 % of control

CC1=NN(c2cccc([N+](=O)[O-])c2)C(=O)C1
inactive: [2] 96 % of control | [3] 96 % of control | dose: 400.0 mg/kg/injection, schedule: Q01DX001 (ip), vehicle: saline with Tween-80 98 % of control

C=CCNC(=O)c1ccccc1
inactive: dose: 25.0 mg/kg/injection, schedule: Q04DX002 (ip), vehicle: saline with Tween-80 97 % of control | dose: 50.0 mg/kg/injection, schedule: Q04DX002 (ip), vehicle: saline with Tween-80 93 % of control | [4] 111 % of control and 91 % of control

CC(=O)Nc1ccc2cnn(C(C)=O)c2c1
inactive: dose: 50.0 mg/kg/injection, schedule: Q01DX009 (ip), vehicle: water 94 % of control | dose: 100.0 mg/kg/injection, schedule: Q01DX009 (ip), vehicle: water 98 % of control | dose: 100.0 mg/kg/injection, schedule: Q04DX003 (ip), vehicle: water 104 % of control | dose: 200.0 mg/kg/injection, schedule: Q01DX009 (ip), vehicle: water 100 % of control | dose: 200.0 mg/kg/injection, schedule: Q04DX003 (ip), vehicle: water 94 % of control | dose: 400.0 mg/kg/injection, schedule: Q04DX003 (ip), vehicle: water 106 % of control

O=C(C1C(c2ccccc2)C1c1ccccc1)N(CCO)c1ccccc1 (stereo unspecified)
inactive: dose: 12.5 mg/kg/injection, schedule: Q04DX002 (ip), vehicle: saline 94 % of control | dose: 25.0 mg/kg/injection, schedule: Q04DX002 (ip), vehicle: saline 106 % of control | [1] 94 % of control

Cc1ccc2[nH]c3ccccc3c(=O)c2c1
inactive: dose: 75.0 mg/kg/injection, schedule: Q01DX001 (ip), vehicle: saline 93 % of control | dose: 150.0 mg/kg/injection, schedule: Q01DX001 (ip), vehicle: saline 91 % of control | dose: 300.0 mg/kg/injection, schedule: Q01DX001 (ip), vehicle: saline 90 % of control

O=C(NC1CCCCC1)Oc1ccc(Cl)cc1Cl
inactive: [5] 93 % of control | [6] 96 % of control | [7] 93 % of control

COc1ccc(NC(=O)C(c2ccccc2)c2ccccc2)cc1
inactive: [8] 92 % of control | [9] 93 % of control | [10] 92 % of control

CCCCCCCCCCCCCCCC[N+]1(C)CCN(SN2CC[N+](C)(CCCCCCCCCCCCCCCC)CC2)CC1
inactive: [11] 98 % of control | [12] 105 % of control | dose: 100.0 mg/kg/injection, schedule: Q04DX003 (ip), vehicle: saline 86 % of control

NC(=S)N/N=C/c1ccc(-c2ccccc2)cc1
inactive: dose: 25.0 mg/kg/injection, schedule: Q01DX009 (ip), vehicle: saline with Tween-80 103 % of control | [13] 113 % of control | dose: 100.0 mg/kg/injection, schedule: Q01DX001 (ip), vehicle: carboxymethylcellulose (CMC) 97 % of control | [14] 100 % of control | dose: 200.0 mg/kg/injection, schedule: Q01DX001 (ip), vehicle: carboxymethylcellulose (CMC) 103 % of control | dose: 400.0 mg/kg/injection, schedule: Q01DX001 (ip), vehicle: carboxymethylcellulose (CMC) 101 % of control

CCCCC(=O)N/N=C/c1cccc(Br)c1
inactive: dose: 100.0 mg/kg/injection, schedule: Q01DX001 (ip), vehicle: saline 102 % of control | dose: 200.0 mg/kg/injection, schedule: Q01DX001 (ip), vehicle: saline 102 % of control | dose: 400.0 mg/kg/injection, schedule: Q01DX001 (ip), vehicle: saline 98 % of control

CCc1ccccc1OC(=O)Nc1ccccc1C
inactive: [5] 95 % of control | [6] 100 % of control | [7] 95 % of control

CC(=O)c1cccc(NC(=O)Oc2ccc(-c3ccccc3)cc2)c1
inactive: [2] 98 % of control | [14] 100 % of control and 90 % of control | [4] 96 % of control and 98 % of control | [8] 90 % of control | [3] 90 % of control | [15] 95 % of control | dose: 200.0 mg/kg/injection, schedule: Q04DX002 (ip), vehicle: saline with Tween-80 93 % of control and 98 % of control | [9] 92 % of control | dose: 400.0 mg/kg/injection, schedule: Q01DX009 (ip), vehicle: saline with Tween-80 90 % of control | dose: 400.0 mg/kg/injection, schedule: Q04DX002 (ip), vehicle: saline with Tween-80 91 % of control | [10] 93 % of control

C/C(=N/N=C(N)N)C(=O)O
inactive: dose: 15.0 mg/kg/injection, schedule: Q01DX Z (ip), vehicle: carboxymethylcellulose (CMC) 101 % of control | dose: 30.0 mg/kg/injection, schedule: Q01DX Z (ip), vehicle: carboxymethylcellulose (CMC) 97 % of control | dose: 60.0 mg/kg/injection, schedule: Q01DX Z (ip), vehicle: carboxymethylcellulose (CMC) 100 % of control and 101 % of control | dose: 120.0 mg/kg/injection, schedule: Q01DX Z (ip), vehicle: carboxymethylcellulose (CMC) 101 % of control and 103 % of control | dose: 240.0 mg/kg/injection, schedule: Q01DX Z (ip), vehicle: carboxymethylcellulose (CMC) 112 % of control | dose: 480.0 mg/kg/injection, schedule: Q01DX Z (ip), vehicle: carboxymethylcellulose (CMC) 98 % of control

N#Cc1nc2c(nc1N)CCCCCCCCCC2
inactive: dose: 100.0 mg/kg/injection, schedule: Q01DX001 (ip), vehicle: Klucel (hydroxypropylcellulose) (HPC) 96 % of control | dose: 400.0 mg/kg/injection, schedule: Q01DX001 (ip), vehicle: Klucel (hydroxypropylcellulose) (HPC) 92 % of control

CCOC(=O)N1c2ccccc2C=CC1OCC (stereo unspecified)
inactive: dose: 12.0 mg/kg/injection, schedule: Q01DX009 (ip), vehicle: saline 93 % of control | dose: 12.0 mg/kg/injection, schedule: Q04DX003 (ip), vehicle: saline 119 % of control | [11] 89 % of control | dose: 25.0 mg/kg/injection, schedule: Q04DX003 (ip), vehicle: saline 113 % of control | [12] 89 % of control | dose: 50.0 mg/kg/injection, schedule: Q04DX003 (ip), vehicle: saline 94 % of control

Cc1ccc(SC(=S)Sc2ccc(C)cc2)cc1
inactive: [13] 91 % of control | [14] 91 % of control | [15] 87 % of control

Cc1cc(N(CCCl)CCCl)ccc1C=Nc1ccc(-c2csc(Cc3ccccc3)n2)c(Cl)c1
inactive: dose: 100.0 mg/kg/injection, schedule: Q01DX001 (sc), vehicle: carboxymethylcellulose (CMC) 100 % of control | dose: 200.0 mg/kg/injection, schedule: Q01DX001 (sc), vehicle: carboxymethylcellulose (CMC) 113 % of control | dose: 400.0 mg/kg/injection, schedule: Q01DX001 (sc), vehicle: carboxymethylcellulose (CMC) 100 % of control

CSc1nncc(-c2cnnc(SC)n2)n1
inactive: [5] 108 % of control | [6] 94 % of control

O=[N+]([O-])c1ccccc1N=Nc1c(O)[nH]c2ccccc12
inactive: dose: 100.0 mg/kg/injection, schedule: Q01DX001 (ip), vehicle: other 102 % of control | dose: 200.0 mg/kg/injection, schedule: Q01DX001 (ip), vehicle: other 98 % of control | dose: 400.0 mg/kg/injection, schedule: Q01DX001 (ip), vehicle: other 102 % of control
